{
  "source": "patent US11136296B2",
  "about": "“Substituted N-arylethyl-2-arylquinoline-4-carboxamides and use thereof” (Bayer Aktiengesellschaft, priority 2017, dated 2021)",
  "molecular_target": "FP receptor (Homo sapiens (Human), UniProt P43088)",
  "sequence (P43088 whole entry)": "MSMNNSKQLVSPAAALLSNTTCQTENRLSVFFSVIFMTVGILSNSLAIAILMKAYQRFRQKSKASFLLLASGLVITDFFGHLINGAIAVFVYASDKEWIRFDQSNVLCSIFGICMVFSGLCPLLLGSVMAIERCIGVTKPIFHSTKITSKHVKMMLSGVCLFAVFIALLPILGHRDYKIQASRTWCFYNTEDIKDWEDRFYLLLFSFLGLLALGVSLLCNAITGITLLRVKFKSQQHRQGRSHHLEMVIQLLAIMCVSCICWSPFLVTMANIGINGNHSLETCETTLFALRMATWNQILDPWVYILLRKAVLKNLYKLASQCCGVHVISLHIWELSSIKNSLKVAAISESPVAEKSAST",
  "assay": "In vitro test of inhibition of human FP receptor activity (PGF2α-induced calcium flux in FP-expressing CHEM1 cells)",
  "assay_type": "cell-based",
  "conditions": "PGF2α-induced (2 nM) calcium flux in FP-expressing CHEM1 cells; some as mean values from multiple determinations",
  "source_text": "Table 1 below lists the IC50 values from this assay for individual working examples of the invention (some as mean values from multiple independent individual determinations): […]",
  "data": [
    {"smiles": "Cc1c(-c2ccccc2)nc2ccc(Br)cc2c1C(=O)NCC(CC(=O)O)c1ccccc1OC(F)(F)F", "note": "(single isomer, unassigned; (+)) [Example 101, (+)-4-{[(6-Bromo-3-methyl-2-phenylquinolin-4-yl)carbonyl]amino}-3-[2-(trifluoromethoxy)phenyl]butanoic Acid]", "values": [
      {"measurement": "IC50", "value": 32, "unit": "nM"}
    ]},
    {"smiles": "Cc1c(-c2ccccc2)nc2ccc(Br)cc2c1C(=O)NCC(CC(=O)O)c1ccccn1", "note": "(single isomer, unassigned; (+)) [Example 104, (+)-4-{[(6-Bromo-3-methyl-2-phenylquinolin-4-yl)carbonyl]amino}-3-(pyridin-2-yl)butanoic Acid]", "values": [
      {"measurement": "IC50", "value": "> 1000", "unit": "nM"}
    ]},
    {"smiles": "Cc1c(-c2ccccc2)nc2ccc(Br)cc2c1C(=O)NCC(CC(=O)O)c1ccccc1C(F)(F)F", "note": "(single isomer, unassigned; (+)) [Example 106, (+)-4-{[(6-Bromo-3-methyl-2-phenylquinolin-4-yl)carbonyl]amino}-3-[2-(trifluoromethyl)phenyl]butanoic Acid]", "values": [
      {"measurement": "IC50", "value": 280, "unit": "nM"}
    ]},
    {"smiles": "COc1cccnc1C(CNC(=O)c1c(C)c(-c2ccccc2)nc2ccc(Br)cc12)CC(=O)O", "note": "(single isomer, unassigned; (+)) [Example 110, (+)-4-{[(6-Bromo-3-methyl-2-phenylquinolin-4-yl)carbonyl]amino}-3-(3-methoxypyridin-2-yl)butanoic Acid]", "values": [
      {"measurement": "IC50", "value": 75, "unit": "nM"}
    ]},
    {"smiles": "Cc1c(-c2ccccc2)nc2ccc(Br)cc2c1C(=O)NCC(C)(CC(=O)O)c1ccccc1F", "note": "(single isomer, unassigned; (+)) [Example 115, (+)-4-{[(6-Bromo-3-methyl-2-phenylquinolin-4-yl)carbonyl]amino}-3-(2-fluorophenyl)-3-methylbutanoic Acid]", "values": [
      {"measurement": "IC50", "value": 31, "unit": "nM"}
    ]},
    {"smiles": "Cc1c(-c2ccccc2)nc2ccc(Br)cc2c1C(=O)NCC(C)(CC(=O)O)c1ccccn1", "note": "(single isomer, unassigned; (+)) [Example 118, (+)-4-{[(6-Bromo-3-methyl-2-phenylquinolin-4-yl)carbonyl]amino}-3-methyl-3-(pyridin-2-yl)butanoic Acid]", "values": [
      {"measurement": "IC50", "value": 280, "unit": "nM"}
    ]},
    {"smiles": "COc1ccccc1C(C)(CNC(=O)c1c(C)c(-c2ccccc2)nc2ccc(Br)cc12)CC(=O)O", "note": "(single isomer, unassigned; (+)) [Example 121, (+)-4-{[(6-Bromo-3-methyl-2-phenylquinolin-4-yl)carbonyl]amino}-3-(2-methoxyphenyl)-3-methylbutanoic Acid]", "values": [
      {"measurement": "IC50", "value": 10, "unit": "nM"}
    ]},
    {"smiles": "COc1ccc(F)cc1C(CNC(=O)c1c(C)c(-c2ccccc2)nc2ccc(Br)cc12)CC(=O)O", "note": "(single isomer, unassigned; (+)) [Example 124, (+)-4-{[(6-Bromo-3-methyl-2-phenylquinolin-4-yl)carbonyl]amino}-3-(5-fluoro-2-methoxyphenyl)butanoic Acid]", "values": [
      {"measurement": "IC50", "value": 5.3, "unit": "nM"}
    ]},
    {"smiles": "COc1cccc(F)c1C(CNC(=O)c1c(C)c(-c2ccccc2)nc2ccc(Br)cc12)CC(=O)O", "note": "(single isomer, unassigned; (+)) [Example 127, (+)-4-{[(6-Bromo-3-methyl-2-phenylquinolin-4-yl)carbonyl]amino}-3-(2-fluoro-6-methoxyphenyl)butanoic Acid]", "values": [
      {"measurement": "IC50", "value": 25, "unit": "nM"}
    ]},
    {"smiles": "CCOc1ccccc1C(CNC(=O)c1c(C)c(-c2ccccc2)nc2ccc(Br)cc12)CC(=O)O", "note": "(single isomer, unassigned; (+)) [Example 131, (+)-4-{[(6-Bromo-3-methyl-2-phenylquinolin-4-yl)carbonyl]amino}-3-(2-ethoxyphenyl)butanoic Acid]", "values": [
      {"measurement": "IC50", "value": 99, "unit": "nM"}
    ]},
    {"smiles": "COc1ccc(F)cc1C(C)(CNC(=O)c1c(C)c(-c2ccccc2)nc2ccc(Br)cc12)CC(=O)O", "note": "(single isomer, unassigned; (+)) [Example 133, (+)-4-{[(6-Bromo-3-methyl-2-phenylquinolin-4-yl)carbonyl]amino}-3-(5-fluoro-2-methoxyphenyl)-3-methylbutanoic Acid]", "values": [
      {"measurement": "IC50", "value": 47, "unit": "nM"}
    ]}
  ]
}
